The record followed here is patent publication US10696615B2, “Prenylated hydroxystilbenes” (The University of Sydney, priority 2011, dated 2020).

Series [1] can be described thus: DPPH scavenging activity assay. As to conditions: FIG. 10, result in words. As for the experimental part:
The (1,1-diphenyl-2-picrylhydrazyl) DPPH assay is commonly used to test free radical scavenging ability of a compound or extracts of natural products by measurement of the reduction of DPPH* radicals at 517 nm. […] Upon reduction by an antioxidant or radical scavenger, the absorption disappears and the resulting decolorization by scavenging the radical is stoichiometric with respect to the number of electrons taken up (DPPH*+AH→DPPH:H+A*). The DPPH assay was carried out in a stepwise procedure as described below.
A methanolic solution of DPPH (0.1 mM) was stirred in a dark container at room temperature for 20 min. The solution was scanned between 400-750 nm to obtain a maximum wavelength (λmax, ˜510 nm). The concentration of the DPPH solution was adjusted with methanol to result in a maximum absorbance of approximately 1.0. Test samples at different concentrations and standard antioxidant solution (0.05 mL) were added to 0.95 mL of methanolic DPPH solution in a cuvette. Final concentrations of the test samples were 0.1, 1, 10, 50, 100 and 200 μM. The mixtures were shaken vigorously and allowed to stand in the dark for 30 min at room temperature. Absorbance of the resulting solution was measured at the maximum wavelength (˜510 nm). A decrease in absorbance indicated a free radical scavenging effect of the test samples. […]

The nature of series [2]: Acute toxicity study (maximum tolerated dose). Type of series: in vivo. The settings on record: for Death days / Survivor/Total day 15: IP, single dose. On the procedure:
A single mouse is given a single IP injection of 400 mg/kg; a second mouse receives a dose of 200 mg/kg IP and a third mouse receives a single dose of 100 mg/kg IP. The mice are observed for a period of 2 weeks. They are sacrificed if they lose more than 20% of their body weight or if there are other signs of significant toxicity. If all 3 mice must be sacrificed, then the next 3 dose levels (50, 25, 12.5 mg/kg) are tested in a similar way. This process is repeated until a tolerated dose is found. This dose is then designated the maximum tolerated dose (MTD) and is used to calculate the amount of material given to experimental mice during anti-tumor testing. The mice are allowed ad libitum feed and water. Drug was dissolved in 100% DMSO at concentration of 200 mg/mL.

Broadly, the MTD is the highest dose tested that stayed within the study's limit of toxicity.

SMILES strings stand for the structures.

For the compound `CC(C)=CCc1c(O)cc(/C=C/c2ccc(O)c(O)c2)c(CC=C(C)C)c1O` [USYDS7, (E)-2,4-di(3-methyl-2-buten-1-yl)-3,3′,4′,5-tetrahydroxystilbene], the “effect on free radical scavenging” value in series [1] is listed as “strong effect”.
With `COc1cc(/C=C/c2cc(O)cc(OC)c2CC=C(C)C)ccc1O` [USYDS1, (E)-2-(3-methyl-2-buten-1-yl)-4′,5-dihydroxy-3,3′-dimethoxystilbene], the MTD at 2 weeks in series [2] (in vivo, mouse, single IP injection, observed 2 weeks) turned out to be 100 mg/kg. For the same compound, the Death days entry in series [2] (mouse, 100 mg/kg/dose) is “None”; in series [2] (mouse, 200 mg/kg/dose) it was 1; in series [2] (mouse, 400 mg/kg/dose), 1. For the same compound, the “Survivor/Total day 15” value in series [2] (mouse, 100 mg/kg/dose) was 1/1; in series [2] (mouse, 200 mg/kg/dose), 0/1; in series [2] (mouse, 400 mg/kg/dose), 0/1. Besides, in series [2] (result in words), the mammalian toxicity entry is listed as “low mammalian toxicity”.
